One experiment addresses Human LDHA (Homo sapiens (Human), UniProt P00338). The experiment can be described thus: human LDHA primary biochemical assay (resazurin/diaphorase coupled, fluorescence). To be noted: LDHA inhibitory activity, activity level based on IC50 (Table 7). The source says: Test compounds were placed in a Greiner Bio-One (Monroe, N.C.) 1536-well black solid bottom assay plate. 200 millimolar (mM) Tris HCl, pH 7.4, 100 micromolar […] EDTA and 0.01% TWEEN-20™, final concentration, was used as the assay buffer. The LDHA reagent was 2 nanomolar (nM) Human LDHA (Meridian Life Science, Inc., Memphis, Tenn.), final concentration, in assay buffer.
Consider `CC(C)CC#Cc1cc(-c2nn(-c3nc(C(=O)O)cs3)c(CC3CC3)c2Cc2ccc(S(N)(=O)=O)c(F)c2)ccc1F` [Compound 538, 2-(5-(cyclopropylmethyl)-3-(4-fluoro-3-(4-methylpent-1-yn-1-yl)phenyl)-4-(3-fluoro-4-sulfamoylbenzyl)-1H-pyrazol-1-yl)thiazole-4-carboxylic acid], for which the IC50 was less than 100 nM.

`COc1cccc(-c2cccc(-c3c(Cc4ccc(S(N)(=O)=O)cc4F)c(C4CC4)nn3-c3nc(C(=O)O)cs3)c2)c1` [Compound 360] came in with an IC50 of 1000 to 57000 nM.

Take `NS(=O)(=O)c1ccc(Cc2c(-c3cccnc3)nn(-c3nc(C(=O)O)cs3)c2O)cc1` [Compound 453, 2-(5-hydroxy-3-(pyridin-3-yl)-4-(4-sulfamoylbenzyl)-1H-pyrazol-1-yl)thiazole-4-carboxylic acid]: the IC50 was 1000 to 57000 nM.

With `Cc1ccc(-c2cccc(-c3c(Cc4ccc(S(N)(=O)=O)cc4F)c(C4CC4)nn3-c3nc(C(=O)O)cs3)c2)cc1` [Compound 354], the IC50 was in the range of 1000 to 57000 nM.

As to `Nc1cccc(-c2cccc(-c3nn(-c4nc(C(=O)O)cs4)cc3Cc3ccc(S(N)(=O)=O)cc3)c2)c1` [Compound 524, 2-(3-(3′-amino-[1,1′-biphenyl]-3-yl)-4-(4-sulfamoylbenzyl)-1H-pyrazol-1-yl)thiazole-4-carboxylic acid], the concentration for half-maximal inhibition (IC50) was in the range of 100 to 1000 nM.

On to `NS(=O)(=O)c1ccc(Cc2cn(-c3nc(C(=O)O)cs3)nc2-c2cccc(OC3CCCC3)c2)cc1` [Compound 460, 2-(3-(3-(cyclopentyloxy)phenyl)-4-(4-sulfamoylbenzyl)-1H-pyrazol-1-yl)thiazole-4-carboxylic acid], for which the IC50 was less than 100 nM.

Molecule `Cc1ccc(-c2cccc(-c3nn(-c4nc(C(=O)O)cs4)c(C4CC4)c3Cc3ccc(S(N)(=O)=O)cc3F)c2)cc1` [Compound 355] returned an IC50 of less than 100 nM.

For `CC(C)=Cc1cc(-c2nn(-c3nc(C(=O)O)cs3)c(CC3CC3)c2Cc2ccc(S(N)(=O)=O)c(F)c2)ccc1F` [Compound 530, 2-(5-(cyclopropylmethyl)-3-(4-fluoro-3-(2-methylprop-1-en-1-yl)phenyl)-4-(3-fluoro-4-sulfamoylbenzyl)-1H-pyrazol-1-yl)thiazole-4-carboxylic acid], the IC50 is less than 100 nM.

`Cc1ccc(-c2nn(-c3nc(C(=O)O)cs3)cc2Cc2ccc(S(N)(=O)=O)cc2)cc1-c1cccnc1` [Compound 486, 2-(3-(4-methyl-3-(pyridin-3-yl)phenyl)-4-(4-sulfamoylbenzyl)-1H-pyrazol-1-yl)thiazole-4-carboxylic acid] gave a 50% inhibitory concentration (IC50) of less than 100 nM.

The molecule `COc1ccc(-c2cc(O)n(-c3nc(C(=O)O)cs3)n2)cc1` [Compound 424] had an IC50 of more than 57000 nM.

`Cc1cc(-c2cc(-c3nn(-c4nc(C(=O)O)cs4)cc3Cc3ccc(S(N)(=O)=O)cc3)ccc2C)ccc1F` [Compound 493, 2-(3-(4′-fluoro-3′,6-dimethyl-[1,1′-biphenyl]-3-yl)-4-(4-sulfamoylbenzyl)-1H-pyrazol-1-yl)thiazole-4-carboxylic acid] showed an IC50 of 100 to 1000 nM.

The experiment is the same for the next values; noted with them: LDHA inhibitory activity, assay of Example 1; activity level classes.
`N[S+](=O)([O-])c1ccc(Cc2c(CC3CC3)nn(-c3nc(C(=O)O)cs3)c2-c2ccc(F)c(-c3cccc(F)c3)c2)cc1F` [Compound 325] returned an IC50 of 1000 to 57000 nM.

`NS(=O)(=O)c1ccc(Cc2c(-c3cccc(-c4ccccc4)c3)nn(-c3nc(C(=O)O)cs3)c2C2(C(F)(F)F)CC2)c(F)c1` [Compound 300] returned an IC50 of 100 to 1000 nM.

Consider `CS(=O)(=O)c1cccc(-c2cc(O)n(-c3nc(C(=O)O)cs3)n2)c1` [Compound 92, 2-(5-hydroxy-3-(3-(methylsulfonyl)phenyl)-1H-pyrazol-1-yl)thiazole-4-carboxylic acid], for which the IC50 was more than 57000 nM.

In turn, `CC(C)(C)OC(=O)c1csc(-n2nc(-c3ccc(F)c(F)c3)c(Cc3cccc(S(N)(=O)=O)c3)c2O)n1` [Compound 117, tert-butyl 2-(3-(3,4-difluorophenyl)-5-hydroxy-4-(3-sulfamoylbenzyl)-1H-pyrazol-1-yl)thiazole-4-carboxylate] displayed an IC50 of more than 57000 nM.

The molecule `O=C(O)c1csc(-n2nc(-c3ccc(F)c(Cc4ccccc4)c3)cc2O)n1` [Compound 104, 2-(3-(3-benzyl-4-fluorophenyl)-5-hydroxy-1H-pyrazol-1-yl)thiazole-4-carboxylic acid] had an IC50 of more than 57000 nM.

The molecule `Nc1c(Cc2ccc(S(N)(=O)=O)cc2)c(-c2ccccc2)nn1-c1nc(CO)cs1` [Compound 131, 4-((5-amino-1-(4-(hydroxymethyl)thiazol-2-yl)-3-phenyl-1H-pyrazol-4-yl)methyl)benzenesulfonamide] gave an IC50 of more than 57000 nM.

Consider `Cc1ccc(-c2cc(-c3nn(-c4nc(C(=O)O)cs4)c(C4CC4)c3Cc3ccc(S(N)(=O)=O)cc3F)ccc2F)cc1` [Compound 253], for which the IC50 was less than 100 nM.

`COc1cccc(-c2cc(-c3nn(-c4nc(C(=O)O)cs4)c(C4CC4)c3Cc3ccc([S+](N)(=O)[O-])cc3F)ccc2F)c1` [Compound 256] came in with an IC50 of less than 100 nM.

`O=C(O)c1csc(-n2cc(-c3ccc(F)c(F)c3)c3cccc(O)c32)n1` [Compound 125, 2-(3-(3,4-difluorophenyl)-7-hydroxy-1H-indol-1-yl)thiazole-4-carboxylic acid] gave an IC50 of more than 57000 nM.

With `Nc1c(Cc2ccc(S(N)(=O)=O)cc2)c(-c2ccccc2)nn1-c1ccc(=O)[nH]n1` [Compound 128, 4-((5-amino-1-(6-oxo-1,6-dihydropyridazin-3-yl)-3-phenyl-1H-pyrazol-4-yl)methyl)benzenesulfonamide], the IC50 is more than 57000 nM.

`O=C(O)c1csc(-n2cc(-c3cccc(-c4ccccc4)c3)c3cccnc32)n1` [Compound 29, 2-(3-([1,1′-biphenyl]-3-yl)-1H-pyrrolo[2,3-b]pyridin-1-yl)thiazole-4-carboxylic acid] registered an IC50 of more than 57000 nM.

`NS(=O)(=O)c1ccc(Cc2cn(-c3nc(C(=O)O)cs3)nc2-c2ccc(F)c(F)c2)cc1` [Compound 41, 2-(3-(3,4-difluorophenyl)-4-(4-sulfamoylbenzyl)-1H-pyrazol-1-yl)thiazole-4-carboxylic acid] came in with an IC50 of less than 100 nM.

`CCOC(=O)c1csc(-n2nc(-c3cccc(OC4CCCC4)c3)c(Cc3ccc(S(N)(=O)=O)c(F)c3)c2CC2CC2)n1` [Compound 333]: the IC50 lay within 1000 to 57000 nM.

Take `O=C(O)c1csc2c1c(=O)[nH]c1cc(-c3ccc(F)c(F)c3)nn12` [Compound 116, 2-(3,4-difluorophenyl)-5-oxo-4,5-dihydropyrazolo[1,5-a]thieno[3,2-e]pyrimidine-6-carboxylic acid]: the IC50 was more than 57000 nM.

With `CNS(=O)(=O)c1cc(-c2cc(O)n(-c3nc(C(=O)O)cs3)n2)ccc1F` [Compound 114, 2-(3-(4-fluoro-3-(N-methylsulfamoyl)phenyl)-5-hydroxy-1H-pyrazol-1-yl)thiazole-4-carboxylic acid], the IC50 was more than 57000 nM.

Staying with this experiment, now noted: read-out: Inhibitory activity IC50.
With `CC(C)c1c(Cc2ccc(S(N)(=O)=O)cc2)c(-c2ccccc2)nn1-c1nc(C(=O)O)cs1` [Compound 159, 2-(5-isopropyl-3-phenyl-4-(4-sulfamoylbenzyl)-1H-pyrazol-1-yl)thiazole-4-carboxylic acid], the IC50 was 100 to 1000 nM.

For `Cc1oc(=O)oc1COC(=O)c1csc(-n2cc(Cc3ccc(S(N)(=O)=O)cc3)c(-c3ccccc3)n2)n1` [Compound 149, (5-methyl-2-oxo-1,3-dioxol-4-yl)methyl 2-(3-phenyl-4-(4-sulfamoylbenzyl)-1H-pyrazol-1-yl)thiazole-4-carboxylate], the IC50 was in the range of 100 to 1000 nM.

Regarding `CC(C)c1nn(-c2nc(C(=O)O)cs2)c(-c2ccccc2)c1Cc1ccc(S(N)(=O)=O)cc1` [Compound 158, 2-(3-isopropyl-5-phenyl-4-(4-sulfamoylbenzyl)-1H-pyrazol-1-yl)thiazole-4-carboxylic acid], the IC50 fell in the range of 1000 to 57000 nM.

On to `NS(=O)(=O)c1ccc(Cc2c(C3CCCCC3)nn(-c3nc(C(=O)O)cs3)c2-c2ccccc2)cc1` [Compound 176, 2-(3-cyclohexyl-5-phenyl-4-(4-sulfamoylbenzyl)-1H-pyrazol-1-yl)thiazole-4-carboxylic acid], for which the IC50 lay within 1000 to 57000 nM.

For the molecule `CCOC(=O)c1csc(-n2nc(-c3ccc(F)c(F)c3)c(Cc3ccc(S(N)(=O)=O)cc3)c2N)n1` [Compound 123, ethyl 2-(5-amino-3-(3,4-difluorophenyl)-4-(4-sulfamoylbenzyl)-1H-pyrazol-1-yl)thiazole-4-carboxylate], the IC50 is 1000 to 57000 nM.

For the molecule `Cc1ccc(-c2cccc(-c3c(Cc4ccc([S+](N)(=O)[O-])c(F)c4)c(CC4CC4)nn3-c3nc(C(=O)O)cs3)c2)cc1` [Compound 286], the IC50 fell in the range of 1000 to 57000 nM.

Take `Cc1ccc(-c2cc(-c3c(Cc4ccc([S+](N)(=O)[O-])cc4)c(CC4CC4)nn3-c3nc(C(=O)O)cs3)ccc2F)cc1` [Compound 283]: the IC50 was 1000 to 57000 nM.

As to `Nc1ncnc2c(-n3cc(Cc4ccc(S(N)(=O)=O)cc4)c(-c4ccccc4)n3)csc12` [Compound 211, 4-((1-(4-aminothieno[3,2-d]pyrimidin-7-yl)-3-phenyl-1H-pyrazol-4-yl)methyl)benzenesulfonamide], the IC50 is 1000 to 57000 nM.

Take `NS(=O)(=O)c1ccc(Cc2c(CCC3CC3)nn(-c3nc(C(=O)O)cs3)c2-c2cccc(-c3ccccc3)c2)cc1` [Compound 204, 2-(5-([1,1′-biphenyl]-3-yl)-3-(2-cyclopropylethyl)-4-(4-sulfamoylbenzyl)-1H-pyrazol-1-yl)thiazole-4-carboxylic acid]: the IC50 lay within 1000 to 57000 nM.

With `NS(=O)(=O)c1ccc(Cc2cn(-c3nc(C(=O)O)cs3)c3ccc(F)cc23)cc1` [Compound 31, 2-(5-fluoro-3-(4-sulfamoylbenzyl)-1H-indol-1-yl)thiazole-4-carboxylic acid], the IC50 was 100 to 1000 nM.

As for `NC(=O)c1csc(-n2nc(-c3cccc(-c4ccccc4)c3)c(Cc3ccc(S(N)(=O)=O)cc3)c2O)n1` [Compound 70, 2-(3-([1,1′-biphenyl]-3-yl)-5-hydroxy-4-(4-sulfamoylbenzyl)-1H-pyrazol-1-yl)thiazole-4-carboxamide], the IC50 was more than 57000 nM.
